What was measured:
[1] = tested on: Podosphaera leucotricha; test: Podosphaera test (apple) / protective; format: in vivo; settings: 100ppm active ingredient, apple plants sprayed protectively, evaluated 10 days after inoculation; 0% = control, 100% = no infestation
Text: Beispiel 1: Podosphaera-Test (Apfel) / protektiv
(§1) Zur Herstellung einer zweckmäßigen Wirkstoffzubereitung vermischt man 1 Gewichtsteil Wirkstoff mit den angegebenen Mengen Lösungsmittel und Emulgator und verdünnt das Konzentrat mit Wasser auf die gewünschte Konzentration.
(§2) Zur Prüfung auf protektive Wirksamkeit werden junge Pflanzen mit der Wirkstoffzubereitung in der angegebenen Aufwandmenge besprüht. Nach Antrocknen des Spritzbelages werden die Pflanzen mit einer wäßrigen Sporensuspension des Apfelmehltauerregers Podosphaera leucotricha inokuliert. Die Pflanzen werden dann im Gewächshaus bei ca. 23°C und einer relativen Luftfeuchtigkeit von ca. 70% aufgestellt.
(§3) 10 Tage nach der Inokulation erfolgt die Auswertung. Dabei bedeutet 0% ein Wirkungsgrad, der demjenigen der Kontrolle entspricht, während ein Wirkungsgrad von 100% bedeutet, daß kein Befall beobachtet wird.

[2] = tested on: Sphaerotheca fuliginea; test: Sphaerotheca test (cucumber) / protective; format: in vivo; settings: 100ppm active ingredient, cucumber plants sprayed protectively, evaluated 7 days after inoculation; 0% = control, 100% = no infestation
Text: Beispiel 2: Sphaerotheca-Test (Gurke) / protektiv
as §1
as §2, with “von Sphaerotheca fuliginea” for “des Apfelmehltauerregers Podosphaera leucotricha”, “dann” for “dann im Gewächshaus”, “70% im Gewächshaus” for “70%”
7 Tage nach der Inokulation erfolgt die Auswertung. Dabei bedeutet 0% ein Wirkungsgrad, der demjenigen der Kontrolle entspricht, während ein Wirkungsgrad von 100% bedeutet, daß kein Befall beobachtet wird.

[3] = tested on: Uromyces appendiculatus; test: Uromyces test (bean) / protective; format: in vivo; settings: 10ppm active ingredient, bean plants sprayed protectively, evaluated 10 days after inoculation; 0% = control, 100% = no infestation
Text: In diesem Test zeigen die erfindungsgemäßen Verbindungen 10, 11, 12 und 13 (siehe Tab.IV) bei einer Konzentration an Wirkstoff von 100ppm einen Wirkungsgrad von 70% oder mehr. Beispiel 3: Uromyces - Test (Bohne) / protektiv
as §1
Zur Prüfung auf protektive Wirksamkeit werden junge Pflanzen mit der Wirkstoffzubereitung in der angegebenen Aufwandmenge besprüht. Nach Antrocknen des Spritzbelages werden die Pflanzen mit einer wäßrigen Sporensuspension des Bohnenrosterregers Uromyces appendiculatus inokuliert und verbleiben dann 1 Tag bei ca. 20°C und 100% relativer Luftfeuchtigkeit in einer Inkubations-kabine.
Die Pflanzen werden dann im Gewächshaus bei ca. 21°C und einer relativen Luftfeuchtigkeit von ca. 90% aufgestellt.
as §3

[4] = tested on: Erysiphe graminis f.sp. hordei; test: Erysiphe test (barley) / protective; format: in vivo; settings: 1000 ppm active ingredient, barley plants sprayed protectively, evaluated 7 days after inoculation; 0% = control, 100% = no infestation
Text: Beispiel 4: Erysiphe-Test (Gerste) / protektiv
as §1
Zur Prüfung auf protektive Wirksamkeit besprüht man junge Pflanzen mit der Wirkstoffzubereitung in der angegebenen Aufwandmenge.
Nach Antrocknen des Spritzbelages werden die Pflanzen mit Sporen von Erysiphe graminis f.sp. hordei bestäubt.
Die Pflanzen werden in einem Gewächshaus bei einer Temperatur von ca. 20°C und einer relativen Luftfeuchtigkeit von ca. 80 % aufgestellt, um die Entwicklung von Mehltaupusteln zu begünstigen.
7 Tage nach der Inokulation erfolgt die Auswertung. Dabei bedeutet 0 % ein Wirkungsgrad, der demjenigen der Kontrolle entspricht, während ein Wirkungsgrad von 100 % bedeutet, daß kein Befall beobachtet wird.

[5] = tested on: Alternaria solani; test: Alternaria test (tomato) / protective; format: in vivo; settings: 500ppm active ingredient, tomato plants sprayed protectively, inoculated 1 day after treatment, evaluated 7 days after inoculation; 0% = control, 100% = no infestation
Text: Beispiel 5: Alternaria-Test (Tomate) / protektiv
as §1
Zur Prüfung auf protektive Wirksamkeit bespritzt man junge Tomatenpflanzen mit der Wirkstoffzubereitung in der angegebenen Aufwandmenge. 1 Tag nach der Behandlung werden die Pflanzen mit einer Sporensuspension von Alternaria solani inokuliert und stehen dann 24h bei 100% rel. Feuchte und 20°C. Anschließend stehen die Pflanzen bei 96% rel. Luftfeuchtigkeit und einer Temperatur von 20 °C.
7 Tage nach der Inokulation erfolgt die Auswertung. Dabei bedeutet 0 % ein Wirkungsgrad, der demjenigen der Kontrolle entspricht, während ein Wirkungsgrad von 100 % bedeutet, dass kein Befall beobachtet wird.

[6] = logP determination; format: physicochemical; settings: pH 2.3; given in the preparation examples; read-out: log P (pH2.3)

| Compound | Wirkungsgrad [1] [%] | Wirkungsgrad [2] [%] | Wirkungsgrad [3] [%] | Wirkungsgrad [4] [%] | Wirkungsgrad [5] [%] | logD [6] |
| --- | --- | --- | --- | --- | --- | --- |
| CCN(C)C=Nc1cc(C)c(Oc2ccc3c(c2)CCCC3)cc1C [Verbindung 13, N-E-thyl-N-methyl-N'-[4-(5,6,7,8-tetrahydro-2-napthoxy)-2,5-dimethylphenyl]form-amidin] | ≥ 70 | ≥ 70 | ≥ 70 | ≥ 70 | ≥ 70 | – |
| Cc1cc(Oc2ccc3c(c2)CCCC3)c(C)cc1N [4-(5,6,7,8-Tetrahydro-2-napthoxy)-2,5-dimethylanilin] | – | – | – | – | – | 3.08 |
| Cc1cc([N+](=O)[O-])c(C)cc1Oc1ccc2c(c1)CCCC2 [4-(5,6,7,8-Tetrahydro-2-napthoxy)-2,5-dimethylnitrobenzol] | – | – | – | – | – | 5.86 |

Reference: patent EP1969935A1, “3.4-disubstituted phenoxy phenylamidines and their use as fungicides” (Bayer CropScience AG, priority 2007, dated 2008)
